Values joined by “and” are separate entries in the source; they are usually repeats but may differ in a detail not shown here. Equal entries are not always repeated.
Experiments:
[1] = cited from earlier work; for Phase transition temperature (Tm): Table 1, SO to LD, phospholipid bilayers
[2] = tested on: human articular cartilage; assay: Wear determination test (GAG content in wear debris); conditions: added to ISF 1:1; after run-in period; 60 N (4.8 MPa)
Procedure: • (i) phospholipid (PL) concentration, using the modified Bartlett assay^37, 38; • (ii) size distribution, for liposomes under 1 μm by dynamic light scattering using an ALV-NIBS High Performance Particle Sizer (Langen, Germany) at a scattering angle of 173°; and for liposomes above 400 nm by light diffraction using a Beckman Coulter LS Particle Size Analyzer 13-320 (Fullerton, Calif.), equipped with polarization intensity differential scattering (PIDS) to provide a dynamic detection range from 40 nm to 2000 μm; • (iii) partial specific adiabatic compressibility, by calculation from the density of the liposome dispersion (using a DMA 5000 density meter, Anton Paar, Graz, Austria) and the velocity of an 5 MHz ultrasonic wave traveling through it (using a UCC-12 ultrasonic velocimeter, NDT Instruments, Jerusalem, Israel), as described by Garbuzenko et al.^39; and • (iv) structure, using scanning electron microscopy (SEM). […] For the a qualitative evaluation of wear, the effect of friction tests on the concentration of total PL in cartilage, and on the structure of the cartilage surface was determined. PL extraction and quantification: Total PL were extracted from cartilage specimens before and after lubrication tests, using the Bligh and Dyer extraction procedure^41, 42. […]

[3] = Partial specific adiabatic compressibility of the lipid bilayer; format: physicochemical
Procedure: • (i) phospholipid (PL) concentration, using the modified Bartlett assay^37, 38; • (ii) size distribution, for liposomes under 1 μm by dynamic light scattering using an ALV-NIBS High Performance Particle Sizer (Langen, Germany) at a scattering angle of 173°; and for liposomes above 400 nm by light diffraction using a Beckman Coulter LS Particle Size Analyzer 13-320 (Fullerton, Calif.), equipped with polarization intensity differential scattering (PIDS) to provide a dynamic detection range from 40 nm to 2000 μm; • (iii) partial specific adiabatic compressibility, by calculation from the density of the liposome dispersion (using a DMA 5000 density meter, Anton Paar, Graz, Austria) and the velocity of an 5 MHz ultrasonic wave traveling through it (using a UCC-12 ultrasonic velocimeter, NDT Instruments, Jerusalem, Israel), as described by Garbuzenko et al.^39; and • (iv) structure, using scanning electron microscopy (SEM). Cartilage: Articular cartilage from healthy or osteoarthritis humans (aged 65 to 86 years) was obtained from femoral head fracture operations or total hip replacements. Tissue was classified as normal or pathological according to the visual diagnosis. For wear rate determination, only femoral heads with normal tissue were selected. Specimens were frozen at −20° C. until sample preparation in order to keep the mechanical properties close to those of live tissue. Pairs of cylindrical plugs, having 4 mm and 8 mm in diameter, each pair from the same region of the joint, were prepared. These cylindrical plugs, consisting of about 2 mm thick cartilage on top of about 8 mm long bone, were removed from the femoral head using a cork borer. The plugs were glued to holders through the bone part, using cyanoacrylate-based adhesive glue, leaving the cartilage projecting out of the holders. Thereafter, these plugs were refrozen at −20° C. until tested. Cartilage with completely intact and smooth surface was used. Friction and wear testing: Liposomes covering a wide range of sizes and concentrations, dispersed in HB, were screened as potential lubricants to reduce friction and wear between two discs of human cartilage at 24° C. and 37° C. […] For the a qualitative evaluation of wear, the effect of friction tests on the concentration of total PL in cartilage, and on the structure of the cartilage surface was determined. PL extraction and quantification: Total PL were extracted from cartilage specimens before and after lubrication tests, using the Bligh and Dyer extraction procedure^41, 42. […]

[4] = LD phase (above Tm); cited from earlier work
[5] = tested on: joints of osteoarthritis patients; conditions: injection into joints of osteoarthritis patients; cited from earlier work

Row | Molecule | SO-to-LD phase transition temperature, Tm [1] | Phase transition temperature (Tm) [1] [°C] | also measured
1 | CCCCCCCCCCCCCCC(=O)OC[C@H](COP(=O)([O-])OCC[N+](C)(C)C)OC(=O)CCCCCCCCCCCCCC [1,2-dipentadecanoyl-sn-glycero-3-phosphocoline] | 33.0 °C | – | –
2 | CCCCCCCCCCCCCCCC(=O)OCC(COP(=O)(O)OCC(O)CO)OC(=O)CCCCCCCCCCCCCCC (stereo not drawn) [DPPG] | 41.4 °C | – | –
3 | CCCCCCCC/C=C\CCCCCCCC(=O)OC[C@H](COP(=O)([O-])OCC[N+](C)(C)C)OC(=O)CCCCCCC/C=C\CCCCCCCC [DOPC, 1,2-dioleoyl-sn-glycero-3-phosphocholine] | – | −21 | –
4 | hyaluronic acid [HA] | – | – | reduction of constant wear rate compared with ISF alone [2]: ~10%
5 | CCCCCCCCCCCCC/C=C/[C@@H](O)[C@H](COP(=O)([O-])OCC[N+](C)(C)C)NC(=O)CCCCCCCCCCCCCCC [N-palmitoyl SM] | 41.4 °C and 41.0 °C | – | –
6 | CCCCCCCCCCCCCC(=O)OC[C@H](COP(=O)([O-])OCC[N+](C)(C)C)OC(=O)CCCCCCCCCCCCC [DMPC, 1,2-dimyristoyl-sn-glycero-3-phosphocholine] | 23.2 °C and 23 °C | 23.2 | partial specific adiabatic compressibility, K ([3]; 24° C.): 46.4 ×10^−6 mL/(g-atm); partial specific adiabatic compressibility, K ([3]; 37° C.): 50.7 ×10^−6 mL/(g-atm); water molecules per headgroup [4]: ~9.7 water molecules per headgroup
7 | CCCCCCCCCCCCCC(=O)OCC(COP(=O)(O)OCC(O)CO)OC(=O)CCCCCCCCCCCCC (stereo not drawn) [DMPG] | 23 °C | – | –
8 | CCCCCCCCCCCCCCCC(=O)OC[C@H](COP(=O)([O-])OCC[N+](C)(C)C)OC(=O)CCCCCCCCCCCCCCC [DPPC, 1,2-dipalmitoyl-sn-glycero-3-phosphocholine] | 41.4 °C | 41.4 | duration of mobility improvement [5]: up to 14 weeks; side effects [5]: without major side effects; partial specific adiabatic compressibility, K ([3]; 24° C.): 28.0 ×10^−6 mL/(g-atm); partial specific adiabatic compressibility, K ([3]; 37° C.): 31.2 ×10^−6 mL/(g-atm); water molecules per headgroup [4]: ~9.7 water molecules per headgroup
